Literature values as cited in patent US20050101629A1, “Compositions of a chromene cyclooxygenase-2 selective inhibitor and a cholinergic agent for the treatment of reduced blood flow or trauma to the central nervous system” (Pharmacia Corporation, priority 2003, published 2005).

Conditions: administered to subjects following stroke; Adibhatla et al. (2002) J. Neurochem. 80:12-23

## C[N+](C)(C)CCOP(=O)(O)OP(=O)(O)OC[C@H]1O[C@@H](n2ccc(N)nc2=O)[C@H](O)[C@@H]1O [citicoline]
  behavioral parameters: improvement in behavioral parameters
  infarction volume: decrease in infarction volume
